Measured values taken from patent publication US6255347A (priority 1997, dated 2001).
“Also recorded” adds a separate entry of the source.

What was measured:
APPs (105 kDa) = APPs (105 kDa) in human blood; format: in vivo
Description: (§1) 15 μl of human plasma, 15 μl of rat plasma, CSF or 50 μg of rat brain protein were denatured with 35 μl of sample buffer at 95° C. for 4 min. Denatured proteins were separated by 10% SDS-polyacrylamide gel electrophoresis with a 50 μg or 20 μg protein load for each sample for APPs or PKC, respectively, and electrophoretically transferred from gel to nitrocellulose membrane. […] The immunoreactive bands were developed using enhanced chemilumenescence (ECL. Amersham Life Sci., Little Chalfont, UK), following extensive washing with the blocking buffer. The PKC bands were verified in each case by competitively blocking the signal with the peptide corresponding to each of PKCs. The bands were quantitated by scanning densitometry. Quantitative comparisons were made between samples processed simultaneously on one blot.
Food intake was restricted until 4 h post dose. […] Over the next 6 days, ibuprofen was administered as 800 mg t.i.d. and subjects were instructed to return on day 3 and 5 for a single blood draw. […] Serum samples were stoiced -20° C. prior to analysis.

PKC βII = system: PKC βII
Description: (§2) The cells were washed twice with phosphate-buffered saline (PBS) at 37° C. and subsequently lysed and scraped in 1 ml ice-cold protein lysis buffer (20 mM Tris-HCl, pH7.4, 2 mM EGTA, 2 mM EDTA, […] leupeptin and […] aprotinin) at 4° C. […] Briefly, cells were homogenized 10× in 15 ml glass homogenizer with a tight-fitting pestle and centrifuged at 900×g for 10 min. The resulting supernatant was then centrifuged at 100,000×g for 60 min to produce a nucleus-free membrane fraction (pellet) and a cytosol fraction (supernatant) for Western blots. The 900×g nuclear pellet was suspended in the 2 ml lysis buffer containing 10% sucrose and 0.1% Triton X-100 and washed twice by centrifuging at 1000×g for 10 min, then resuspended in 1 ml of the same buffer without Triton X-100 for Western blots. The purity of the fractions was monitored by light microscopy. […] The samples were stored at -70° C. until analysis.
as §1
(§3) Male Sprague-Dawley rats (12 month) were obtained from Harlan-Sprague-Dawley, Inc. (Indianapolis, Ind.) and housed under controlled conditions of temperature humidity and light/dark cycle. […] Rat blood, brain and 50 μl of cerebrospinal fluid were collected and stored at -70° C. for APPs and PKC analysis by Western blotting. Rat stomach and duodenum were collected for the quantitation of gastroduodenal lesions.
(§4) Following separation of cytosolic or membrane proteins of rat brain protein by SDS-polyacrylamide gel electrophoresis, the proteins were transfer to nitrocellular membranes. The membranes were then probed for presence of PKCs using polyclonal antibodies against PKC α, βII, θ, ε, .xi., or γ.

PKC .xi. = details: cytosolic or membranous fractions
Description: as §2, §1, §3, §4

PKC α = system: PKC α
Description: as §2, §1, §3, §4

PKC γ = details: cytosolic or membranous fractions
Description: as §2, §1, §3, §4

PKC ε = details: cytosolic or membranous fractions
Description: as §2, §1, §3, §4

PKC θ = details: cytosolic or membranous fractions
Description: as §2, §1, §3, §4

PKCα = PKCα translocation in NIH 3T3 cells (subcellular fractionation, Western blot); format: cell-based; details: 10 μg/ml; for inhibition of PKCα translocation from cytosol to nuclear compartments: PMA 4 hours; for inhibition of PKCα translocation, racemate versus enantiomers: particularly 2 weeks of PMA
Description: (§5) NIH 3T3 cells (American Type Culture Collection, Rockville, Md.) were cultured in DMEM supplemented with 10% FBS inoculated at 10^4 cells/35 […] dish. […] PMA and ibuprofen were dissolved in DMSO and stored in 5% DMSO stock solutions that were diluted a 1000-fold with culture media prior to use. […] The media containing freshly added PMA and ibuprofen were changed every 60 hours for both the foci formation assay and PKCα analysis by Western blot.
as §2, §1

rat stomach and duodenum = assay: Gastric ulcer index / gastroduodenal lesions in rat; format: in vivo; details: rat, in vivo
Description: as §3
The rat stomach and first 12 cm of the duodenum were opened and carefully shed with saline to remove any residual debris and fixed in 10% buffered formaldehyde. Tissues were examined macroscopically (×10) for lesions and hemorrhages. The evaluation of lesions or hemorrhages was based on the ulcer index (UI) reported by Leyck et al. (1985) and expressed as the sum total of lesions per treatment. The scoring units used ranged from 0 to 5, where zero represents no macroscopically visible lesions; 1 represents one to three small ulcers less than 4 mm; 2 represents more than three small ulcers; 3 represents ulcer hemorrhages with several small ulcers; 4 represents large (>4 mm) ulcers; 5 indicates tissue perforation.

NIH 3T3 cells = assay: Foci formation assay, inhibition of PMA induced neoplastic transformation of NIH 3T3 cells; format: cell-based; details: PMA 0.02 μg/ml, 2% FBS; for inhibition of PMA induced foci formation / neoplastic transformation: 6 weeks, ibuprofen 10 or 100 μg/ml
Description: as §5
Subsequent to washing with a tris/ saline buffer, the cells were stained with a solution of 4% aqueous Giemsa stain in phosphate buffer (pH 7.0). Foci of transformed cells were then visible by eye due to their high local density and verified by under light microscopy.

APPs [1] = details: 10 mg/kg P.O. bid, 7 days; n = 4 mean ± S.D.
Description: as §2, §1
Male Sprague-Dawley rats (12 month) were obtained from Harlan-Sprague-Dawley, Inc. (Indianapolis, Ind.) and housed under controlled conditions of temperature humidity and light/dark cycle. […] Rat stomach and duodenum were collected for the quantitation of gastroduodenal lesions. […]

[2] = system: APPs secretion by NIH 3T3 cell lines; details: 50 μM, 20 h culture, n = 2, mean ± S.D.
PKC = target: T1, PKC (Rattus norvegicus, UniProt P05696); assay: Protein kinase C activity assay (histone phosphorylation, partially purified rat brain PKC); format: biochemical; details: PMA stimulated; for concentration inhibiting PKC mediated histone phosphorylation: 2 min, 30° C.
T1 construct: Partially purified PKCα from rat brain; purchased Promega (Madison, Wis.); host or cells: rat brain (tissue enzyme, partially purified)
Description: The following were obtained from the Sigma Chemical Co. (St. […] Anti-PKCα antibody (affinity purified) and its C-terminal region peptide was obtained from Life Technologies (Gaithersburg, Md.). […] All other chemicals were of the highest available purity and were obtained from standard commercial sources. […] Following 2 min initial incubation at 30° C., kinase reactions were initiated by the addition of ^32 P-γ-ATP and enzyme and continued at 30° C. for 2 min. Control incubations contained all assay components except enzyme and ibuprofen. […] All samples were carried out in duplicate.

APPs [3] = details: 10 mg/kg P.O. bid, 7 days
Description: as §1, §3
The cytosolic and membrane fractions were obtained by differential centrifugation of rat brain tissue treated by ibuprofen. […]

cyclooxygenase = details: cited from earlier work
[4] = Chiral inversion of R- to S-ibuprofen in culture (HPLC); format: in vitro ADME; details: NIH 3T3 culture
Description: The concentration of the enantiomers of ibuprofen in cell culture media was determined by an HPLC procedure previously described for the enantiomers of ketoprofen (Grubb et al., 1996). The HPLC column consisted of a 5 μm (S,S)-Whelk-O1 stationary phase (250 mm×4.6 mm; Regis Technologies, Morton Grove, Ill.) eluted with a mobile phase of hexane/isopropyl alcohol/acetic acid (98/2/0.05) flowing at 0.8 ml/ min. […] Quantitation was achieved using peak area ratios with R-flurbiprofen as internal standard and ultraviolet absorbance at 254 nm. The limit of quantitation was set at 100 ng/ml.

AD progression = details: 6-month, double-blind, placebo-controlled; cited from earlier work
[5] = membrane fraction, 10 mg/kg bid 7 days, n = 4 mean ± S.D.

CC(C)Cc1ccc(C(C)C(=O)O)cc1 (racemic) [RS-ibuprofen]
human blood APPs (105 kDa) (APPs (105 kDa); 1st dose (800 mg), 0 hour (before dose), n = 4, mean ± S.D.): 1.95 | duration of increased APPs (105 kDa) secretion (APPs (105 kDa); after 7 days dosing, 800 mg t.i.d. oral): 14 days | human blood APPs (105 kDa) (APPs (105 kDa); post 1st dose (800 mg), 1 hour, n = 4, mean ± S.D.): 3.64 | human blood APPs (105 kDa) (APPs (105 kDa); post 1st dose (800 mg), 3 hours, n = 4, mean ± S.D.): 3.22 | human blood APPs (105 kDa) (APPs (105 kDa); post 7 days dose (800 mg, tid), 1 hour, n = 4, mean ± S.D.): 4.57 | human blood APPs (105 kDa) (APPs (105 kDa); post 7 days dose (800 mg, tid), 1 day, n = 4, mean ± S.D.): 6.15 | human blood APPs (105 kDa) (APPs (105 kDa); post 7 days dose (800 mg, tid), 2 days, ND = Not detectable): 4.77 | human blood APPs (105 kDa) (APPs (105 kDa); post 7 days dose (800 mg, tid), 3 days, ND = Not detectable): 4.33 | human blood APPs (105 kDa) (APPs (105 kDa); post 7 days dose (800 mg, tid), 4 days, ND = Not detectable): 3.37 | human blood APPs (105 kDa) (APPs (105 kDa); post 7 days dose (800 mg, tid), 14 days, ND = Not detectable): 3.77 | duration of increased APPs (105 kDa) secretion (APPs (105 kDa); single oral 800 mg dose): 1 days | rat brain PKC βII content (in words) (PKC βII; 7 days of treatment): not significantly | Density of PKC βII Bands (PKC βII; [5]): 8.46 ± 3.68 | effect on PKC .xi. content (PKC .xi.): did not show a dramatic effect | rat brain PKC α content (in words) (PKC α; 7 days of treatment): not significantly | Density of PKC α Bands (PKC α; [5]): 13.61 ± 5.15 | effect on PKC γ content (PKC γ): did not show a dramatic effect | effect on PKC ε content (PKC ε): did not show a dramatic effect | effect on PKC θ content (PKC θ): did not show a dramatic effect | PKCα detectable in the membrane fraction (PKCα; 2 weeks of PMA): detectable in the membrane fraction | inhibition of PKCα translocation from cytosol to nuclear compartments (PKCα): completely blocked | inhibition of PKCα translocation, racemate versus enantiomers (PKCα): less potent than either of the enantiomers | gastropathy (in words) (rat stomach and duodenum): induced serious gastric ulcers and hemorrhage | inhibition of PMA induced foci formation / neoplastic transformation (NIH 3T3 cells; listed as Racemic ibuprofen): dramatically decreased | inhibition of PMA induced foci formation / neoplastic transformation (NIH 3T3 cells; listed as racemic ibuprofen): inhibit the neoplastic transformation; also recorded: substantially inhibited | Density of APP Bands, Cytosol (APPs [1]): 9.32 ± 5.35 | Density of APPs band [2]: 6.073 ± 0.55 | concentration inhibiting PKC mediated histone phosphorylation (PKC): 2 µM | APPs secretion in rat CSF (in words) (APPs [3]): dramatically increased APPs secretion | Density of APP Bands, CSF (APPs [3]; n = 4 mean ± S.D.): 13.63 ± 6.56

CC(C)Cc1ccc([C@@H](C)C(=O)O)cc1 [R-ibuprofen]
inhibition of PKCα translocation compared to antipode (PKCα; 4 hours PMA): more effective than its antipode | inhibition of PKCα translocation from cytosol to nuclear compartments (PKCα): clearly modulated the time dependent intracellular redistribution of PKCα | inhibition of PKCα translocation, racemate versus enantiomers (PKCα): more effective than the racemic mixture | capability to inhibit cyclooxygenase (in words) (cyclooxygenase): very weak capability to inhibit cyclooxygenase | gastric ulcers, incidence (rat stomach and duodenum): one small gastric ulcer in 2 out of 4 rats | ulcers larger than 4 mm (rat stomach and duodenum): no ulcer larger than 4 mm | inhibition of foci formation, enantiomers compared to racemate (NIH 3T3 cells): more pronounced than that of the racemate; also recorded: more effective than the racemic mixture | inhibition of PMA induced foci formation / neoplastic transformation (NIH 3T3 cells): dramatically decreased; also recorded: inhibit the neoplastic transformation; also recorded: substantially inhibited | inversion of R- to S-ibuprofen [4]: No inversion of R- to S-ibuprofen was detectable; also recorded: did not occur | concentration inhibiting PKC mediated histone phosphorylation (PKC): 1 µM | inhibition at 20 µM (PKC; read-out: maximal inhibition of PKC activity, at 20 μM): 53%

COc1ccc2c(c1)c(CC(=O)O)c(C)n2C(=O)c1ccc(Cl)cc1 [indomethacin]
slowing AD progression (AD progression): very effective in slowing AD progression
